Laboratory results as given in patent publication US4771041A, “Method for combating virus infection” (priority 1976, dated 1988).

Columns and labels:
[1] = biological target: T1, E. coli DNA dependent RNA polymerase (Escherichia coli, UniProt P0A8T7+P0A8V2); assay: Inhibition of E. coli DNA dependent RNA polymerase; type: biochemical
T1 construct: purchased Sigma
Method: (§1) Polymerases, nucleic acid template nucleoside triphosphates, of which guanosine triphosphate is tritium-labelled, salt and buffer are mixed at 0° C. in a total volume of 125 μl (for herpes DNA polymerase, see F. below). The concentrations of the nucleoside triphosphates UTP (uridine triphosphate), CTP (cytidinetriphosphate), GTP (guanosinetriphosphate) and ATP (adenosinetriphosphate) were generall 400, 400, 400, and 2000 μM, respectively. The test compound is also added in various concentrations to the mixture obtained. A standard mixture without test compound is also prepared using the same amounts of the ingredients. The enzyme reaction, i.e. synthesis of nucleic acid, is started by incubating the mixture at 37° C. For influenza RNA polymerases the temperature is 33° C. The reaction is allowed to proceed for 60 minutes in the assay of influenza and Micrococcus polymerases. […] The incorporation of labelled monomer into trichloroacetic acid insoluble nucleic acid product was measured in the following way. […] After drying the discs are measured for radioactivity in a liquid scintillation counter. The difference in radioactivity between samples with and without added compound is used to calculate the inhibition of the polymerase activity. The inhibition is expressed as percentage inhibition using the radioactivity of the standard sample as basis. […]

[2] = test system: herpes simplex type 1; assay: Herpes simplex type 1 plaque reduction assay on GMK monolayers; type: cell-based; settings: mean of three experiments
Method: The inhibition of influenza virus and herpes virus by phosphonoformic acid has been measured as plaque reaction according to the following procedures.
H. Inhibition by phosphonoformic acid of herpes simplex type 1 plaque
The plaque reduction assay for herpes simplex type 1 was performed on GMK (Green Monkey Kidney) cells as described by Ejereito et el., J. Gen. Virol. 2 (1968) 357. Monolayers on 5 cm petri dishes were used and after virus adsorption phosphonoformic acid was added in the medium.

[3] = test system: visna virus; assay: Visna virus growth in sheep choroid plexus (SCP) cells: virus titre and morphological changes; type: cell-based; settings: for Morphological changes Day 3 / Morphological changes Day 5 / Morphological changes Day 7: Visna virus infected cells
Method: Visna virus is a retrovirus that can multiply in sheep choroid (SCP) cells. The infection can be followed by titrating medium from infected cells to determine the formation of virus particles and by observing morphological changes as syncytial formation and cell degeneration.
Plates (5 cm) with primary SCP cells in medium 199 with 10% sheep serum were grown to confluence and then infected with 1×10^6 TCID50 (tissue culture infectious doses) of visna virus. One set of plates were left untreated, one set received different concentrations of phosphonoformic acid (PFA) at pH 7.2. Another set received phosphonoacetic acid (PAA) at pH 7.2. Uninfected plates were used as controls with and without PFA and PAA. The virus titre was determined 5 days after infection by the end-point titration method. The plates were checked daily in a light microscope to observe morphological changes.

[4] = test system: Ehrlich ascites tumors (Friend virus); assay: Survival of NMRI mice bearing Ehrlich ascites tumors; type: in vivo; settings: 100 mg/kg per day ip, 2% solution pH 7.2; versus 0.95% NaCl control; FIG. 2
Method: The inhibition of reverse transcriptase by phosphonoformic acid (PFA) has prompted an investigation of the effect of PFA on animals with tumors where retroviruses are implicated. Ehrlich ascites tumors (Friend virus) in NMRI mice and YBA solid tumors (Moloney virus) in CBA mice have been used.
NMRI mice were inoculated intraperitoneally with 0.1 ml of a 1/10 dilution of ascitic fluid from a mouse with an Ehrlich ascites tumor. Nine mice were given intraperitoneally 100 mg/kg of PFA per day as a 2% solution at pH 7.2, and 9 mice were treated with 0.95% NaCl ip. CBA mice were inoculated with 7×10^6 cells subcutaneously in the flank. Fifteen CBA mice were given 0.5% PFA at pH 7.2 in the drinking water and fifteen water without addition.

[5] = Acute toxicity in mice; set-up: species or system male mice of NMRI strain; settings: mouse, in vivo, ip, as sodium salt, male NMRI mice
Method: Phosphonoformic acid was tested for acute toxicity in mice. The compound (as its sodium salt) was given as solution i.p. in doses of 250, 500, 1000, 2000 and 4000 μmol/kg. Groups of 4 male mice of NMRI strain weighing 18.5-20.5 g were used for each dose.

[6] = biological target: Micrococcus luteus DNA dependent DNA polymerase (Micrococcus luteus, UniProt C5CBM1); assay: Inhibition of Micrococcus luteus DNA dependent DNA polymerase; type: biochemical
Method: as §1

[7] = test system: cutaneous herpes type 1; settings: trisodium salt in topical preparations according to examples 15, 16 and 17; preliminary experiments
[8] = test system: type B influenza virion-associated RNA polymerase; assay: Inhibition of type B influenza virion-associated RNA polymerase; type: biochemical, influenza B Hongkong 8/73; settings: 500 μM; GTP 135 μM
Method: as §1

T1 sequence (P0A8V2 whole entry): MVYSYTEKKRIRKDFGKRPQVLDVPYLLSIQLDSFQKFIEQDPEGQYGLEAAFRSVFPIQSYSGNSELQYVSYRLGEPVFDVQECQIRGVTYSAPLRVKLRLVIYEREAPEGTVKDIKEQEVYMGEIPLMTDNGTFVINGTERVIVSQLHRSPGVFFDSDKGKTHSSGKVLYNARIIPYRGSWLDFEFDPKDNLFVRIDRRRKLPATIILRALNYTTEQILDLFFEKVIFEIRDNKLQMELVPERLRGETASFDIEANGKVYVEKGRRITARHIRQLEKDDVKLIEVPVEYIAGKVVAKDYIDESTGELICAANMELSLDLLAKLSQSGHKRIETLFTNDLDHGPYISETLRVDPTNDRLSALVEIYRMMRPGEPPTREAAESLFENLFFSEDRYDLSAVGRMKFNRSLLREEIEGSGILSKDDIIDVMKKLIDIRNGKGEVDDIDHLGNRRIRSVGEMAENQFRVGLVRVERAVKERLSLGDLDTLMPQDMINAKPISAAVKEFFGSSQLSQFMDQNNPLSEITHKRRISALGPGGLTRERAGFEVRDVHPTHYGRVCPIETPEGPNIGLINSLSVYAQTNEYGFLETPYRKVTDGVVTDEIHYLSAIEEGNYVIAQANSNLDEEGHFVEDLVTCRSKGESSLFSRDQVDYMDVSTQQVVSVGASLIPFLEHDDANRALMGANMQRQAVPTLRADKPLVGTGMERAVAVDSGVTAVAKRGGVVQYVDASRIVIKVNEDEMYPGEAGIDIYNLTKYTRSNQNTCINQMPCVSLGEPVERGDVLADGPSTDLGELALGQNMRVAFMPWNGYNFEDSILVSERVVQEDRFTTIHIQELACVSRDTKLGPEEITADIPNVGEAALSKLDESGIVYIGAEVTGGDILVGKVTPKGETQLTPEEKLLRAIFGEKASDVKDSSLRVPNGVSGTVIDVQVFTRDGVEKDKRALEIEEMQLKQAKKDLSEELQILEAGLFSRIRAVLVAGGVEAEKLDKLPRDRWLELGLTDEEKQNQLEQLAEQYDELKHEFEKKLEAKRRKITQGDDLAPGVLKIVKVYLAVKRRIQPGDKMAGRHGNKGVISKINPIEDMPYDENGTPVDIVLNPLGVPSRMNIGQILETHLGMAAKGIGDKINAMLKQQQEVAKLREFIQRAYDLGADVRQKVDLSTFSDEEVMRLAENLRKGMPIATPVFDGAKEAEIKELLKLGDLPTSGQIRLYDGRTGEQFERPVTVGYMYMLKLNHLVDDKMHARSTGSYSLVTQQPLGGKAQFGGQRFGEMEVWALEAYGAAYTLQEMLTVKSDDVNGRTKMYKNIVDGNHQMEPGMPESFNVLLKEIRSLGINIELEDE
T1 sequence (P0A8T7 whole entry): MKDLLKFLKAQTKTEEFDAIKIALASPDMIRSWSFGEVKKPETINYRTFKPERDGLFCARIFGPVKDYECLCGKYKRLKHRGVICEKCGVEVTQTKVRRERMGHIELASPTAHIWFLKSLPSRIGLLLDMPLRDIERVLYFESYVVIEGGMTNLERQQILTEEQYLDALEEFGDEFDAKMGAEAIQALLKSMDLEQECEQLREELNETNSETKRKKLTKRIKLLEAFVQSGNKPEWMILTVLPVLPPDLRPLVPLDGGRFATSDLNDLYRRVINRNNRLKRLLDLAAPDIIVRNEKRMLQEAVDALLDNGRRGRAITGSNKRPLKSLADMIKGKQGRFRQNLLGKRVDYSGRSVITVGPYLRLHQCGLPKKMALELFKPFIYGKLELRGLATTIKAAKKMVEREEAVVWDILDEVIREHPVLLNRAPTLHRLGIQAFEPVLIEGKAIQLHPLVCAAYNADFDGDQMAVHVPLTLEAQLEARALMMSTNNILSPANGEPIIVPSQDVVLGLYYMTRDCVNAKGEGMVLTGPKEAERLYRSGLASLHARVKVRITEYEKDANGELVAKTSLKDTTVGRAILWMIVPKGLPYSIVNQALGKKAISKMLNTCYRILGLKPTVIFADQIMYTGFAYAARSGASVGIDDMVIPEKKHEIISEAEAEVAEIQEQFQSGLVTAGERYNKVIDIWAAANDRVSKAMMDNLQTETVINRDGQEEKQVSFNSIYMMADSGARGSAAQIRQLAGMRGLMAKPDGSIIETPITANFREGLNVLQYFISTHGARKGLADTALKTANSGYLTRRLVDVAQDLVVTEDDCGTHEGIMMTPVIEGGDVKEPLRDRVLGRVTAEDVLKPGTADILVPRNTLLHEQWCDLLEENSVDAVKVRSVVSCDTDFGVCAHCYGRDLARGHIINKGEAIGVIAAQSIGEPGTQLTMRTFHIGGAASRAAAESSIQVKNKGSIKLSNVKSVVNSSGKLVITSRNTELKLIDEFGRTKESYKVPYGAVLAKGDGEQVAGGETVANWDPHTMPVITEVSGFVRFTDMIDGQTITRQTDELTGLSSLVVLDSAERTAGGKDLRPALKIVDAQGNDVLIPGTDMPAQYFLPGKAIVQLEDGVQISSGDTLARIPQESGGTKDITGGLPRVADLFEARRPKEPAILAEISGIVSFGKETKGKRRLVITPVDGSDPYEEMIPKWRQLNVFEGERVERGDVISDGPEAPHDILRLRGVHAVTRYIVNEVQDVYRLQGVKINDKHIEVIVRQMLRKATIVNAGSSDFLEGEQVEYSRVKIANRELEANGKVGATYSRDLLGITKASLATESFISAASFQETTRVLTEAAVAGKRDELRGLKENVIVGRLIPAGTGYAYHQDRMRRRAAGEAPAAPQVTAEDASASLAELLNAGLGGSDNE
T1 sequence (P0A7Z4 whole entry, further chain): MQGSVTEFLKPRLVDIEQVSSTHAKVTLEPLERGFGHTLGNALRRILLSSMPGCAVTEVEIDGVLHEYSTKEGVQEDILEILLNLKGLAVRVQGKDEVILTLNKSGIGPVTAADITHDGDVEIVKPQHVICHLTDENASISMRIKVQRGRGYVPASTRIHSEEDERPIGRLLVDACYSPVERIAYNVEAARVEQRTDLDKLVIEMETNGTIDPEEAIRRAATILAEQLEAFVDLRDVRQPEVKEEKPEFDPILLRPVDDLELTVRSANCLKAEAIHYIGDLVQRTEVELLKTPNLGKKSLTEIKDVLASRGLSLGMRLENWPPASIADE
T1 sequence (P0A800 whole entry, further chain): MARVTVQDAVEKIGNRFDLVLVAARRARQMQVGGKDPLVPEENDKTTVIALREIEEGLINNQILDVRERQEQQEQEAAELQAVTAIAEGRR
Chain of Micrococcus luteus DNA dependent DNA polymerase (C5CBM1 entry or part of it): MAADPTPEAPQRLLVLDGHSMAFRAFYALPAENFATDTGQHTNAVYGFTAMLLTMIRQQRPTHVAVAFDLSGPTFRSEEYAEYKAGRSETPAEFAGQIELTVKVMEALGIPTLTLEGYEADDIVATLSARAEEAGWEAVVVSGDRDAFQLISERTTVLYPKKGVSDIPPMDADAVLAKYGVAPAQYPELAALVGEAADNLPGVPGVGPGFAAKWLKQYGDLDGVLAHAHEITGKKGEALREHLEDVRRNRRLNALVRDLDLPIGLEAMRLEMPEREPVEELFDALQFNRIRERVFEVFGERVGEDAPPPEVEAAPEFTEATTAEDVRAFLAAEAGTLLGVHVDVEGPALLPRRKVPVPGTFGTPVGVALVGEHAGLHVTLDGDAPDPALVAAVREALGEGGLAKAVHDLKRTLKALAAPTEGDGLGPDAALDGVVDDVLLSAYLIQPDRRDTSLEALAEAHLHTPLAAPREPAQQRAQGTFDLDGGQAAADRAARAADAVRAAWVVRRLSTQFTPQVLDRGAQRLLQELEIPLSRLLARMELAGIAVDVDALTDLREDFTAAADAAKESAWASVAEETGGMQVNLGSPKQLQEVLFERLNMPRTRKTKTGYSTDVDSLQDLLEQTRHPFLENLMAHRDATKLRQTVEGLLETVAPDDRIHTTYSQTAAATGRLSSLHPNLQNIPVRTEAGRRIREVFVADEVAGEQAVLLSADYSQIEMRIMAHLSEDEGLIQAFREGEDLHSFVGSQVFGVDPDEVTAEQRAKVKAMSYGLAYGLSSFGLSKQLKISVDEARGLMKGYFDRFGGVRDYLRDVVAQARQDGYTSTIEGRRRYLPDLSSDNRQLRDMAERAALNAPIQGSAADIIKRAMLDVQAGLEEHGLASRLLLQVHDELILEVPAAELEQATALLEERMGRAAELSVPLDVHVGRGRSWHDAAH

Structure (SMILES): O=C(O)P(=O)(O)O [phosphonoformic acid]
- inhibition at 500 µM [1]: 3%
- inhibition at 1 µM ([2]; Human alphaherpesvirus 1, 1 μM): 0%
- inhibition at 15 µM ([2]; Human alphaherpesvirus 1, 15 μM): 50%
- inhibition at 100 µM ([2]; Human alphaherpesvirus 1, 100 μM): 90%
- Morphological changes Day 3 ([3]; 100 μM): -
- Morphological changes Day 5 ([3]; 100 μM): + (10% cell degeneration)
- Morphological changes Day 7 ([3]; 100 μM): ++ (25% cell degeneration)
- Morphological changes Day 3 ([3]; 500 μM): -
- Morphological changes Day 5 ([3]; 500 μM): -
- Morphological changes Day 7 ([3]; 500 μM): + (10% cell degeneration)
- IC50 ([3]; Visna-maedi virus, 120 h, SCP cells, virus titre 5 days after infection, read-out: concentration giving 50 percent reduction of virus multiplication): 20 µM
- survival of mice inoculated with Ehrlich ascites cells [4]: increased survival
- LD50 [5]: 2000 to 4000 µmol/kg
- inhibition at 500 µM [6]: 6%
- therapeutic effect [7]: has a therapeutic effect
- Inhibition [8]: 100%
